Test [1] concerns the target Tyrosine-protein kinase BAZ1B (Homo sapiens) (UniProt Q9UIG0). The settings on record: dose 10.0 µM.
Test [2] concerns the target Adrenergic receptor alpha-2 (Homo sapiens) (UniProt P08913+P18825+P18089). Kind of test: Binding affinity to Alpha 2 receptor (unknown origin) assessed as specific binding at 10 uM relative to control. Format: protein assay.
The target of test [3] is 5-hydroxytryptamine receptor 5A (Homo sapiens) (UniProt P47898). Kind of test: Inhibition of 5HT5A (unknown origin) at 10 uM relative to control.
5-hydroxytryptamine receptor 5A (Homo sapiens), sequence (P47898 whole entry): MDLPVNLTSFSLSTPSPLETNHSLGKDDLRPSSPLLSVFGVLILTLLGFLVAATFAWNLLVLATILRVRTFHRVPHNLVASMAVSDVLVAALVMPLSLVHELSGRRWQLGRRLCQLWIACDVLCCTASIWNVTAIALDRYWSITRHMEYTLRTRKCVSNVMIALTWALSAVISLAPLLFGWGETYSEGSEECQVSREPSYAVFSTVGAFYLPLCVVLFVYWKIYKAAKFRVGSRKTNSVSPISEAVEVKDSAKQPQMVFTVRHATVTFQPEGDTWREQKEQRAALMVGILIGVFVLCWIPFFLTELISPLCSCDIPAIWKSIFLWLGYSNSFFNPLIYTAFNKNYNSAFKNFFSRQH
For test [4], the target named is Bromodomain and WD repeat-containing protein 1 (Homo sapiens) (UniProt Q9NSI6). Particulars: dose 10.0 µM.
The species entered for test [5] is Homo sapiens. The settings on record: dose 10.0 µM.
The species entered for test [6] is Homo sapiens. Particulars: dose 10.0 µM. This is another data set of the same source.
Test [7] addresses Bromodomain adjacent to zinc finger domain protein 2B (Homo sapiens) (UniProt Q9UIF8). The settings on record: dose 10.0 µM.
Test [8] addresses Protein polybromo-1 (Homo sapiens) (UniProt Q86U86). Particulars: dose 10.0 µM.
The species named for test [9] is Homo sapiens. Kind of test: Binding affinity to Cl channel GABA gated receptor (unknown origin) assessed as specific binding at 10 uM relative to control.
In test [10] the target is 5-hydroxytryptamine receptor 7 (Homo sapiens) (UniProt P34969). Briefly: Inhibition of 5HT7 (unknown origin) at 10 uM relative to control.
5-hydroxytryptamine receptor 7 (Homo sapiens), sequence (P34969 whole entry): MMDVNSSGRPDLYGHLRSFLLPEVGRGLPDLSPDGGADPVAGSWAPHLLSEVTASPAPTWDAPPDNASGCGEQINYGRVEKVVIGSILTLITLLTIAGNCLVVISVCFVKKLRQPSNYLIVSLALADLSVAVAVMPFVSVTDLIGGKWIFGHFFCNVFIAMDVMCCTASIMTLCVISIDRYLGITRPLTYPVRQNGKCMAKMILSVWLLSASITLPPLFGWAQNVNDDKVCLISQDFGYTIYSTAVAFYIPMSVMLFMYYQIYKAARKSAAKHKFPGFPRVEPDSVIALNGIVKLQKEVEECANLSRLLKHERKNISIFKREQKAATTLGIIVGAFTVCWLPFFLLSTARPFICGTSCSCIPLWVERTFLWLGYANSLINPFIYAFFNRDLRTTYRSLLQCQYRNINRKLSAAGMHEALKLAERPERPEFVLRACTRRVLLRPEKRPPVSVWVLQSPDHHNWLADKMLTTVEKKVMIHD
Test [11] concerns the target T1, Bromodomain-containing protein 1 (Homo sapiens) (UniProt O95696).
T1 sequence (whole entry): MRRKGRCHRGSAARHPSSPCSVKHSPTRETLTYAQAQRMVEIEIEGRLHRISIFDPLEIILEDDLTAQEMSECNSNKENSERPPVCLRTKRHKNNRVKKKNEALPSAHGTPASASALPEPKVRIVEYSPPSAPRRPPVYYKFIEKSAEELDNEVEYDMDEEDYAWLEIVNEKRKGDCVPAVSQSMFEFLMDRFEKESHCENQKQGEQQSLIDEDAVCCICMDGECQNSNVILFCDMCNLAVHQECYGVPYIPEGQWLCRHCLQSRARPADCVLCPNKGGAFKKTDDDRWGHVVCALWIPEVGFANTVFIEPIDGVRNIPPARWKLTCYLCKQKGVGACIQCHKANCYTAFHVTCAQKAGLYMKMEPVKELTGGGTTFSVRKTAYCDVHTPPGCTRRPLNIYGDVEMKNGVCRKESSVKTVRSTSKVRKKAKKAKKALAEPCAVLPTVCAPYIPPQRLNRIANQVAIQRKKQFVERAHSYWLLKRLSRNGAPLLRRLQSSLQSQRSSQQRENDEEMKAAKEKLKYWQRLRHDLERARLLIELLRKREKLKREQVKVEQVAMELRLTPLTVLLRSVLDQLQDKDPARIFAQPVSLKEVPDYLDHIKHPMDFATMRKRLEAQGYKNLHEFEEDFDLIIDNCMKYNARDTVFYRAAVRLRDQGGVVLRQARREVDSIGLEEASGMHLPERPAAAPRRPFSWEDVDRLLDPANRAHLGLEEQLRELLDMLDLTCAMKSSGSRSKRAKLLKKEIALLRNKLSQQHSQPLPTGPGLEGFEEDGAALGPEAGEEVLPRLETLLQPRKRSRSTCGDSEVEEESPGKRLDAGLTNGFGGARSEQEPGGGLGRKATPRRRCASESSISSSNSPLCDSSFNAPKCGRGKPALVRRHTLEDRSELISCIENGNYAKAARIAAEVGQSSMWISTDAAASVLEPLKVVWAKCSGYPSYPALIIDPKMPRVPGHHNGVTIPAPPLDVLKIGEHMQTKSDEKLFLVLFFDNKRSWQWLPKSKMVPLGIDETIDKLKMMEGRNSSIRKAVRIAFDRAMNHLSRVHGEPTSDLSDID
Briefly: Binding affinity to BRPF2 (unknown origin) assessed as change in gibbs free energy at 12 uM by Isothermal titration calorimetry.

In test [12] the target is Transcription intermediary factor 1-beta (Homo sapiens) (UniProt Q13263). The settings on record: dose 10.0 µM.
The target in test [13] is Histamine H1 receptor (Homo sapiens) (UniProt P35367). Kind of test: Binding affinity to H1 receptor (unknown origin) assessed as specific binding at 10 uM relative to control.
Histamine H1 receptor (Homo sapiens), sequence (P35367 whole entry): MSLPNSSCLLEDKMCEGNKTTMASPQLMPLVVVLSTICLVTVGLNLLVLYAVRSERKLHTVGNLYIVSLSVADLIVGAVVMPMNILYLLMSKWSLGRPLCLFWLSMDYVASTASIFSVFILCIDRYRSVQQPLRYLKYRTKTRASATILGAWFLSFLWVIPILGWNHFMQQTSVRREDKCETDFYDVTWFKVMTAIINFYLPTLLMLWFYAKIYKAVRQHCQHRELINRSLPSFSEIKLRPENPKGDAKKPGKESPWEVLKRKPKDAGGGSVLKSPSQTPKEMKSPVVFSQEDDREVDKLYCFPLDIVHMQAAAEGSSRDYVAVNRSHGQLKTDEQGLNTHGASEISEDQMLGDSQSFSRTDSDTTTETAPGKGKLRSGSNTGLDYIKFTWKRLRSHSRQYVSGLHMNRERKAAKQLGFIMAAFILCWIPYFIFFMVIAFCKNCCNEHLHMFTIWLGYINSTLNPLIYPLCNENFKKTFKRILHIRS
Test [14] has as its target T2, Bromodomain and PHD finger-containing protein 3 (Homo sapiens) (UniProt Q9ULD4).
T2 sequence (whole entry): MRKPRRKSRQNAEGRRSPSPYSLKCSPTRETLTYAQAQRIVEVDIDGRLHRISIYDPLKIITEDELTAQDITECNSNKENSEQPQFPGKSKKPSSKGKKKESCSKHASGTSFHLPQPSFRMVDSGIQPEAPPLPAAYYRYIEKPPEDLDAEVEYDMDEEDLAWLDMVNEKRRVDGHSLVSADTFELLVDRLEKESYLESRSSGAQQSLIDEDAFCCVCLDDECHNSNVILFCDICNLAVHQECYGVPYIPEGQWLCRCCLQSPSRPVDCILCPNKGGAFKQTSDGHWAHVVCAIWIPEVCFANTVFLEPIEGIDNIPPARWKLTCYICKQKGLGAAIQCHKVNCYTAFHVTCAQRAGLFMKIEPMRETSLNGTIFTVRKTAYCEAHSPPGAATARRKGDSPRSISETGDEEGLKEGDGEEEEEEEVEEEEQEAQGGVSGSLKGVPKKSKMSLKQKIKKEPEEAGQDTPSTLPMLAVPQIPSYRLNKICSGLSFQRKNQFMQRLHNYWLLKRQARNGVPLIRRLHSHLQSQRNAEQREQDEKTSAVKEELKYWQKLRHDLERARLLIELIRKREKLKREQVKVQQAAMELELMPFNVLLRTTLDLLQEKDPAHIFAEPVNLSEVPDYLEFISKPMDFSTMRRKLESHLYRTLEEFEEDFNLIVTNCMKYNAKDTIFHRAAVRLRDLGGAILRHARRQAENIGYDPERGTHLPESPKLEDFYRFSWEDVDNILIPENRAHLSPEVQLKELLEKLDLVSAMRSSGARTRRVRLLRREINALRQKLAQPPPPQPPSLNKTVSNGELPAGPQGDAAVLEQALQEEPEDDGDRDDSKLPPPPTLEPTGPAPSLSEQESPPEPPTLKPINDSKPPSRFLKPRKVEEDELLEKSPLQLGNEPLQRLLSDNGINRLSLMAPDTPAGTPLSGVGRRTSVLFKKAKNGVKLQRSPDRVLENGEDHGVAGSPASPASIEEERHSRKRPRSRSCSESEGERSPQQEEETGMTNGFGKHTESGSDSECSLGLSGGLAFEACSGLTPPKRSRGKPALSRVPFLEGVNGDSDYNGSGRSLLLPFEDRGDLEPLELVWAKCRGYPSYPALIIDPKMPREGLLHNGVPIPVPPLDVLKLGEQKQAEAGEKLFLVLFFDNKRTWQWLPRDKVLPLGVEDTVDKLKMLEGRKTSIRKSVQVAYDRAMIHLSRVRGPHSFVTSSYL
Kind of test: Binding affinity to BRPF3 (unknown origin) assessed as change in entropy at 12 uM by Isothermal titration calorimetry. On the technique in general: Isothermal titration calorimetry measures the heat released or taken up as one component is titrated into another.

Structures are written as SMILES.

Tyrosine-protein kinase BAZ1B (Homo sapiens), sequence (Q9UIG0 whole entry): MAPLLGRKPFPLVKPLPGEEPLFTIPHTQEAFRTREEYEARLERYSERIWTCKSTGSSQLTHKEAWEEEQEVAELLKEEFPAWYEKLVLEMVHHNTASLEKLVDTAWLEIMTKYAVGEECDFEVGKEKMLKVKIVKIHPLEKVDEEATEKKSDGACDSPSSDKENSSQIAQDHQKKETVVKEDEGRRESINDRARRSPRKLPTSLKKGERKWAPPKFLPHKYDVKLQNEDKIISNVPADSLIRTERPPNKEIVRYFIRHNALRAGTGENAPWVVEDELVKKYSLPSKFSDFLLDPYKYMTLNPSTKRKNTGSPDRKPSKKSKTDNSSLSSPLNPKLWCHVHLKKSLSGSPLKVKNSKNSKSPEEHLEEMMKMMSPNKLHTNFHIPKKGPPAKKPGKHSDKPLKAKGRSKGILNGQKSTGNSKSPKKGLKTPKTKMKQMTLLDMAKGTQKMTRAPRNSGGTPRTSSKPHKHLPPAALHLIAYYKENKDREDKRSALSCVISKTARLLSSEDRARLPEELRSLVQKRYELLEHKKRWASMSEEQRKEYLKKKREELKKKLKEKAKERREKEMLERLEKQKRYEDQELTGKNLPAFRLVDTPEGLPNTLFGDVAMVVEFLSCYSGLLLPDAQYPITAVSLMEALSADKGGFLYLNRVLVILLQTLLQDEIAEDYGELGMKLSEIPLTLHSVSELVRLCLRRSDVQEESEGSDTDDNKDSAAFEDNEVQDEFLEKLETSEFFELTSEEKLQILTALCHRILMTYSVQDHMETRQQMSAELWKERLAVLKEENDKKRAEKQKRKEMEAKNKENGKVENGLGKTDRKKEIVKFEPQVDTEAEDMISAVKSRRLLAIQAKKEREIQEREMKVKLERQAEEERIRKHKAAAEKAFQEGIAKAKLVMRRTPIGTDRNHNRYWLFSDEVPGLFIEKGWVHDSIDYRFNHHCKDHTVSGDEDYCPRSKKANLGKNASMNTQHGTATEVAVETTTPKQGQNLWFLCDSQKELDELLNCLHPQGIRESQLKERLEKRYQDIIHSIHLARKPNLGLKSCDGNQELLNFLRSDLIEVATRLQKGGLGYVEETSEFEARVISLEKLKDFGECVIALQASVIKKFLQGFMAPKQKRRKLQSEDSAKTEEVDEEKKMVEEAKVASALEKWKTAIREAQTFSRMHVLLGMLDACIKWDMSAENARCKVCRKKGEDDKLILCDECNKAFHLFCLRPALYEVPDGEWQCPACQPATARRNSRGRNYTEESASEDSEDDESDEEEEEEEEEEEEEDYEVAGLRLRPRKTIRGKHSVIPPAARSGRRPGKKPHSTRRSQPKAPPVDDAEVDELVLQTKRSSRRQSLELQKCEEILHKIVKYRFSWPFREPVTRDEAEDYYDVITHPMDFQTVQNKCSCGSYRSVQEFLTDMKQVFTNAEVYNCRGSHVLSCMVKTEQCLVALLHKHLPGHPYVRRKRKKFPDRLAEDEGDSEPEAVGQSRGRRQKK
Protein polybromo-1 (Homo sapiens), sequence (Q86U86 whole entry): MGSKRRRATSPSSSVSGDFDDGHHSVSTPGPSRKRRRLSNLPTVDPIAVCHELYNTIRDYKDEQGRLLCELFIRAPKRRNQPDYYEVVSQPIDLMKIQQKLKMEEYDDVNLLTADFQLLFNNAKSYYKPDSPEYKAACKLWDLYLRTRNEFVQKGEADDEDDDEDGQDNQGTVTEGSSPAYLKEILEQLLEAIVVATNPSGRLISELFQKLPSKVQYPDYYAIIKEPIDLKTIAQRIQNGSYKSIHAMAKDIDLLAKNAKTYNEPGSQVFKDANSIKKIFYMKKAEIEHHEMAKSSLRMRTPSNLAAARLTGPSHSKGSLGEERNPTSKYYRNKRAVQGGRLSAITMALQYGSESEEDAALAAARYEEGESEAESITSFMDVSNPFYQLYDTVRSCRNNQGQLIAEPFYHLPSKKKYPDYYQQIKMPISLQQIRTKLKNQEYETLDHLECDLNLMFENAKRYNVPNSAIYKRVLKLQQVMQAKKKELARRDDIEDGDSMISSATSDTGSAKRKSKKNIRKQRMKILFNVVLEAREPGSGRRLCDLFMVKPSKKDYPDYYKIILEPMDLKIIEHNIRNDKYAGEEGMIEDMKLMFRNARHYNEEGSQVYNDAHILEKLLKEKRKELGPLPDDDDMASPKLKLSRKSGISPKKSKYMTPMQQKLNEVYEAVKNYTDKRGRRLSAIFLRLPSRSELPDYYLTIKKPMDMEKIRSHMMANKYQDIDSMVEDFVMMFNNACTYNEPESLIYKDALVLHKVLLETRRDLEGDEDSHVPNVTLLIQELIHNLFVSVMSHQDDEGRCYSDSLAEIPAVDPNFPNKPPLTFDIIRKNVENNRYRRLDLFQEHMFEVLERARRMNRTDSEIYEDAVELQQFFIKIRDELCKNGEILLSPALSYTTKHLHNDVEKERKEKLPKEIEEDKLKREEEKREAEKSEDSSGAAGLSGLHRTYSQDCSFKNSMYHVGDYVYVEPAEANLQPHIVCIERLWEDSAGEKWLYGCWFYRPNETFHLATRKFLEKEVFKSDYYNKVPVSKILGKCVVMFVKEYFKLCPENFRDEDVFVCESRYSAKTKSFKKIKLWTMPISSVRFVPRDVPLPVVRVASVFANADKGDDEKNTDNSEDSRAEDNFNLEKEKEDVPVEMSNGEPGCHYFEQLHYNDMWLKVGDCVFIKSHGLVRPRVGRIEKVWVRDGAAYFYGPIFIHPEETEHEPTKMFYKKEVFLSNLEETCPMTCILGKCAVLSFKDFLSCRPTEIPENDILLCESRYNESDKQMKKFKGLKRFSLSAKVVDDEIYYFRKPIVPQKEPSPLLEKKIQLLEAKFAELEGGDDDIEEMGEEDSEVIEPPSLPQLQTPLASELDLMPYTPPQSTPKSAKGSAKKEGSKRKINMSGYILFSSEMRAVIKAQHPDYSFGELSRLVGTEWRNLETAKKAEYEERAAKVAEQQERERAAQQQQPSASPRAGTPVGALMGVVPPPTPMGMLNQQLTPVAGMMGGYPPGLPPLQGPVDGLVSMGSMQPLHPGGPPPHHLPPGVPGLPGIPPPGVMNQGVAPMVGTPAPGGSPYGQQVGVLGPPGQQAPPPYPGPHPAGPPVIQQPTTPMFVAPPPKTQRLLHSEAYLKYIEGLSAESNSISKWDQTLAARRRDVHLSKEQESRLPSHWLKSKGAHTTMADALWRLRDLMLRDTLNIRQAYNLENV

In general, ΔTm refers to the shift of the melting midpoint relative to a reference. Usually inhibition stands for how much of the control response was suppressed. On to `COc1cc2c(cc1NS(=O)(=O)c1ccc(Br)cc1C)n(C)c(=O)n2C`, for which the ΔTm was 0.3 °C in test [1]; 1 °C in test [4]; 0.2 °C in the test filed under Homo sapiens [5]; -0.4 °C in the test filed under Homo sapiens [6]; 0.9 °C in [7]; 0.6 °C in test [8]. The ΔTm in test [12] turned out to be 0.2 °C. Besides, the Activity in test [2] turned out to be 112%; in the test listed under Homo sapiens [9] it was 95.3%; in test [13], 96.8%. For the same compound, the inhibition is 22% in test [3] and 2% in test [10]. In addition, in test [11], the deltaG is -8.3 kcal/mol. In addition, in [14], the deltaS stood at 0.002 kcal/mol/K.

Source of the values: ChEMBL document CHEMBL5715956, “Selective Targeting of Bromodomains of the Bromodomain-PHD Fingers Family Impairs Osteoclast Differentiation” (ACS Chem Biol, 2017).
